Like-named read-outs stand apart in the source and are kept apart here.
Columns and labels:
melanoma cell line A375 = assay: In vitro dose response study, A375 proliferation; format: cell-based, human; conditions: A375, 96h; for IC50: Homo sapiens, A-375, graded concentration, cell concentration
Description: The melanoma cell line A375 was treated during 96h with graded concentration of compounds 5, 38, 42 and 43. At the end of the culture period, the cell concentration was determined.

NIK = NIK (Homo sapiens, UniProt Q99558); conditions: patent PCT/EP2017/067306; cited from earlier work
Chain of NIK (Q99558 whole entry): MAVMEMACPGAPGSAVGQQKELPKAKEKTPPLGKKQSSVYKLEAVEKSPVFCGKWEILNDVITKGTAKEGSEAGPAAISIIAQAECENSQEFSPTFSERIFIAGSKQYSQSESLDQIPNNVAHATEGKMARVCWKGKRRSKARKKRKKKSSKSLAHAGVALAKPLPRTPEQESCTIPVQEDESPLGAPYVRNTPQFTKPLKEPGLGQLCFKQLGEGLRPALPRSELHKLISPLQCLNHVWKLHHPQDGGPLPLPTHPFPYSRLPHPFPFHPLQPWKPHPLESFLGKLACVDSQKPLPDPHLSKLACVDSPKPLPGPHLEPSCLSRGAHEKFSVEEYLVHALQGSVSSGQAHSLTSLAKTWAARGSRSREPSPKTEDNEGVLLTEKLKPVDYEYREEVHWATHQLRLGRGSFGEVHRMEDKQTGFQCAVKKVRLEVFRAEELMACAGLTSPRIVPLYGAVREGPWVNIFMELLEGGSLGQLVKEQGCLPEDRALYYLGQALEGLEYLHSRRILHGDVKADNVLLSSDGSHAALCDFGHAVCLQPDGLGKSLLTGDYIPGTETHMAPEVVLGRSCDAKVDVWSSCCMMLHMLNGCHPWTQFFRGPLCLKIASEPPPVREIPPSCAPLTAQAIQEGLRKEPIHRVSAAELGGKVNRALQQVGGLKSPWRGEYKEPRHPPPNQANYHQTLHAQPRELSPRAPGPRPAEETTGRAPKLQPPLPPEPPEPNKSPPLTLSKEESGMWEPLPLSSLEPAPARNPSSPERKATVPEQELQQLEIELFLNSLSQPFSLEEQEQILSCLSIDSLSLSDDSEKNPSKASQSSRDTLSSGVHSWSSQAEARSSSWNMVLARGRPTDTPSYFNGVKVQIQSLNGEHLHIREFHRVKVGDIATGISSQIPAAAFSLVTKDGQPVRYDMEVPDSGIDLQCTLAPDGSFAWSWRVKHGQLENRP

[1] = test system: plck-GAPDH tumor (AITL-like lymphoma) engrafted in NSG mice; assay: Treatment of plck-GAPDH AITL lymphoma engrafted NSG mice; format: in vivo, mouse
Description: Tumor Transplantation into NOD/SCIDγc−/− (NSG) Mice
Single cell suspensions from spleen or lymph nodes of old (>18 months) plck-GAPDH mice with splenomegaly were injected intravenously (i.v.) into 6-8 week old NSG mice (1-2E7 splenocytes per mouse). Recipient mice were sacrificed for evaluation when the mice became weak and/or splenomegaly could be detected (30 to 60 days after injection). The different hematopoietic organs (liver, spleen, blood) were isolated and single cell suspension prepared for FACS analysis (see below).
Treatment with NIK Inhibitor
Plck-GAPDH tumors were injected into 10 NSG mice (see above) and 5 were treated with a newly developed chemical NIK inhibitor (compound 5 according to the invention) or with Vehicle. IP injections were performed every other day with compound 5 (250 μg in 100 μl DMSO/Tween-20/Labrafil) or vehicle (100 μl DMSO/Tween-20/Labrafil). The second NIK inhibitor used (compound 38 according to the invention) was more soluble and IP injections were performed every other day with compound 38 (250 μg in 100 μl NaCl 0,9%/mouse) or vehicle (100 μl NaCl 0,9%/mouse).
Two different plck-GAPDH tumors expressing high levels of PD-1 on the CD4^+ T cells were injected into 10 NSG mice and the mice were treated with anti-PD1 antibody (clone PMP1-14, BioXcell; 125 μg in PBS/mouse) or an isotope control antibody daily for the first 2 days post-tumor injection, then every other day.
Combined anti-PD1 and NIK Inhibitor Treatment
The mice were injected with antibody (anti-PD1 or isotype control) in the morning and compound 38 according to the invention (injected in the evening) daily for the first 2 days plck-GAPDH post-tumor injection, then every other day. Same concentration as for single treatments was used.
Recipient mice were sacrificed at endpoint (>10% weight loss or palpable splenomegaly). Single cell suspensions were prepared from the spleen, BM and liver for immunophenotypic FACS analysis.

Solubility = format: physicochemical
[2] = test system: human Diffuse large B-cell lymphoma (DLBCL) B cell lines (U2932, KARPAS 422, SUDHL6, OCYL3); assay: B cell lymphoma proliferation assay; format: cell-based; conditions: 10 μM, 96 h
Description: B Cell Lymphoma Proliferation Assay
The tested cancer cells are the following: the human Diffuse large B-cell lymphoma (DLBCL) cell lines: Karpas-422, SUDHL-6, U2932 and Oxyl3.
Cells were counted using a flow cytometer (MACQUANT, Miltenyi). 2E5 cells were seeded in 2 ml RPMI-GlutamaX supplemented with 10% FCS at start of the proliferation assay in a 6-well plate supplemented with the NIK Inhibitor (compound 38) at 10 μM for 96 h. The cell numbers at 96h were then determined by counting using a flow cytometer. We distinguished dead and living cells using DAPI staining.
Proliferation was calculated as followed:
Proliferation (%)=(Treated cell number/untreated cells)*100.
The average and standard deviation were determined from 3 independent experiments.

[3] = test system: EZH2 mRNA in A375 cancer cells; assay: Quantitative RT-PCR analysis of EZH2 gene expression; format: cell-based, human; conditions: 10 μM, 96 h
Description: (§1) Quantitative RT-PCR Analysis of EZH2 and p21 Gene Expression
(§2) Total RNA was isolated from cells using the RNAeasy minikit (Qiagen) according to the manufacturer's procedure. Reverse transcription was performed using the AMV reverse transcription system (Promega), and quantitative PCR was performed with Power Sybr green (Applied Biosystems, Life Technologies, Grand Island, N.Y.) following the manufacturer's instructions. The PCR was carried out on a Step One plus Real-Time PCR system (Applied Biosystems). All analyses were done in triplicate, and a melting curve analysis was performed to control for product quality and specificity. Expression levels were calculated using the comparative method of relative quantification, with SB34 as a normalizer. The data were analyzed for statistical significance using Student's t-test. The results are presented as the mean±SEM relative to the control.
(§3) PCR primers for EZH2 (accession number NM004456.4) and p21(CDKN1A) (accession number NM078467.2) were obtained from primer bank or primer depot (http://pga.mgh.harvard.edu/primerbank/, https://primerdepot.nci.nih.gov), and their specificity was verified using primer blast (http://www.ncbi.nlm.nih.gov/tools/primer-blast/).

[4] = test system: pancreas carcinoma (MiaPaca 2); assay: Cancer cell proliferation assay (trypan blue exclusion), MiaPaca-2; format: cell-based, human; conditions: 10 μM; proliferation normalized to DMSO-treated control
Description: (§4) Cancer cell proliferation assay (A375, A549, PC3, HT-29, MiaPaca-2 and MCF-7)
(§5) The tested cancer cells are the following: human melanoma cells (A375), lung carcinoma cells (A549), prostate cancer cells (PC3), colon adenocarcinoma (HT29), pancreas carcinoma (MiaPaca 2) and breast carcinoma (MCF-7).
(§6) Cells were counted using a Malassez chamber. The average and standard deviation were calculated from triplicate experiments. Antiproliferative effects were evaluated by trypan blue exclusion assay. Briefly, cells were seeded into 12-well plate and grown in media supplemented with indicated compound at 1 or 10μM for 48h or 96h. Cells were washed with PBS and detached by trypsinization, collected and colored by trypan blue.
(§7) Dead and living cells were counted and proliferation was calculated as follow: Proliferation (%)=[(treated cell number/untreated cells number)*100].
(§8) As a comparison, cell viability was also determined and calculated as follow: Viability (%)=100−[(dead cell number/total cells)*100].

breast carcinoma (MCF-7) = assay: Cancer cell proliferation assay (trypan blue exclusion), MCF-7; format: cell-based, human; conditions: 10 μM; proliferation normalized to DMSO-treated control
Description: as §4, §5, §6, §7, §8

human melanocytes (MHN) = assay: Melanocyte viability assay (MHN); format: cell-based; conditions: 10 μM, 96 h; viability normalized to DMSO-treated control
Description: Melanocyte Viability Assay (MHN)
Cell viability effects were evaluated by trypan blue exclusion assay. Briefly, cells were seeded into 12-well plate and grown in media supplemented with indicated compound at 10 μM for 96 h. Cells were washed with PBS and detached by trypsinization, collected and colored by trypan blue. Dead and living cells were counted and cell viability was calculated as follow: Viability (%)=100−[(dead cell number/total cells)*100].

[5] = test system: human melanoma cells (A375); assay: Cancer cell proliferation assay (trypan blue exclusion), A375; format: cell-based; conditions: 10 μM; proliferation normalized to DMSO-treated control
Description: as §4, §5, §6, §7, §8

[6] = test system: prostate cancer cells (PC3); assay: Cancer cell proliferation assay (trypan blue exclusion), PC3; format: cell-based, human; conditions: 10 μM; proliferation normalized to DMSO-treated control
Description: as §4, §5, §6, §7, §8

[7] = test system: IFN-γ in supernatant of A375 cancer cells; assay: ELISA measurement of IFN-γ in supernatant; format: cell-based, human; conditions: 10 μM, 96 h
Description: Supernatant from cells treated for 96 h was tested for human or mouse IFN-γ content via ELISA (peprotech, cat 900-k27 and 900-k98) kit following the manufacturer's instructions.

[8] = test system: colon adenocarcinoma (HT29); assay: Cancer cell proliferation assay (trypan blue exclusion), HT29; format: cell-based, human; conditions: 10 μM; proliferation normalized to DMSO-treated control
Description: as §4, §5, §6, §7, §8

[9] = test system: p21 (CDKN1A) mRNA in A375 cancer cells; assay: Quantitative RT-PCR analysis of p21 gene expression; format: cell-based, human; conditions: 10 μM, 96 h
Description: as §1, §2, §3

[10] = test system: lung carcinoma cells (A549); assay: Cancer cell proliferation assay (trypan blue exclusion), A549; format: cell-based, human; conditions: 10 μM; proliferation normalized to DMSO-treated control
Description: as §4, §5, §6, §7, §8

[11] = test system: senescence-associated β-galactosidase (SA-β-Gal); assay: Quantitative senescence-associated beta-galactosidase assay; format: cell-based; conditions: SA-β-Gal 4-MUG cleavage; relative to DMSO-treated control
Text: Quantitative Senescence-Associated Beta-Galactosidase Assay
The production of the fluorophore was monitored at an […] wavelength of 365/460 nm, as reported (Gary and Kindell, 2005)

[12] = Microsomal stability (mouse liver microsomes); format: in vitro ADME; conditions: mouse liver microsomes 0.5 mg/mL, NADPH 1 mM, 37° C.
Description: Microsomal Stability (Mouse Liver Microsomes)
Microsomal stability was evaluated with mouse liver microsomes (0.5 mg/mL) and NADPH cofactor (1 mM) at 37° C. The percentage of remaining compound is determined at 5 min by LC-MS by measuring the area under the peak of compound on the chromatogram.

[13] = plck-GAPDH tumor engrafted NSG mice

| SMILES | concentration at which inhibition of A375 proliferation starts (melanoma cell line A375) | IC50 (melanoma cell line A375) | anti-NIK activity (NIK) | qPCR EZH2 A375 mRNA [3] | Cancer Cell Proliferation MiaPaca-2 [4] | Cancer Cell Proliferation MCF-7 (breast carcinoma (MCF-7)) | Cancer Cell Proliferation A375 [5] | Cancer Cell Proliferation PC3 [6] | ELISA IFN-γ (A375), IFN-γ concentration [7] | Cancer Cell Proliferation HT29 [8] | qPCR p21 A375 mRNA [9] | Cancer Cell Proliferation A549 [10] | % Senescence, conversion rate [11] | also measured |
| --- | --- | --- | --- | --- | --- | --- | --- | --- | --- | --- | --- | --- | --- | --- |
| COc1ccc(Nc2ccnc3cc(Cl)ccc23)cc1 [Compound 5, N-(4-methoxyphenyl)-7-chloroquinolin-4-amine] | around 5 mM | 1330 nM | confirmed its activity in vitro | – | – | – | – | – | – | – | – | – | – | GC B cells in the spleen at sacrifice [1, 13]: completely devoid of GC B cells; survival of tumor engrafted NSG mice as compared to the control group ([1]; plck-GAPDH tumor engrafted NSG mice, IP treatment day 1 and 2, then every other day): significant increased survival |
| COc1ccc(Nc2ccnc3cc(Cl)ccc23)cc1OC [Compound 38, N-(3,4-dimethoxyphenyl)-7-chloroquinolin-4-amine] | around 5 mM | 560 nM | potent | – | – | – | – | – | – | – | – | – | – | solubility (Solubility): more soluble; solubility (Solubility; listed as COMPONENT 38): high solubility; proliferation of B cell lymphoma cancer cell lines compared with controls (DMSO) [2]: strong inhibitory effect; cell viability of B cell lymphoma cell lines ([2]; data not shown): without affecting the cell viability; survival of the plck-GAPDH tumor engrafted mice ([1]; NSG mice, compound 38 250 μg IP, anti-PD1 125 μg, every other day): up to 60%; B cells in the spleen at sacrifice [1, 13]: highly significant decrease; CD4+ T cells in the spleen [1, 13]: strong reduction; Tfh PD1high CD4+ population in the spleen [1, 13]: residual subpopulation; spleen size at sacrifice compared to controls [1, 13]: significant decrease in spleen size; CD8 cytotoxicity (IFNγ, granzyme B, perforin by cytotoxic CD8+ cells) ([1]; splenocytes at sacrifice, PMA/ionomycin 5 h): increasing CD8 IFNγ release |
| COCCOc1ccc(Nc2ccnc3cc(Cl)ccc23)cc1 [Compound 42, 7-chloro-N-(4-(2-methoxyethoxy)phenyl)quinolin-4-amine] | around 5 mM | – | – | 0.23 fold relative to DMSO-treated control | 7.8% | 11.9% | 6.9% | 14.1% | 1.73 (ng/mL)/millions cells | 3.5% | 6.79 fold relative to DMSO-treated control | 19.5% | 645.9% | Heathly Cell Viability MHN (human melanocytes (MHN)): 99.0% |
| COc1ccc(Nc2ccnc3cc(Cl)ccc23)cc1O [Compound 43, 7-chloro-N-(3-(hydroxy)-4-(methoxy)phenyl)quinolin-4-amine] | around 5 mM | – | – | 0.62 fold relative to DMSO-treated control | 32.4% | 29.5% | 30.5% | 55.0% | 0.41 (ng/mL)/millions cells | 15.6% | 3.08 fold relative to DMSO-treated control | 51.1% | 1875.1% | Microsomal stability, mouse liver (5 min), percentage of the remaining compound [12]: 41% ± 3; Microsomal stability, mouse liver (5 min), percentage of the remaining compound ([12]; listed as compound 43): 41% |
